Experimental findings from patent publication US10450258B2, “Substituted aromatic compounds for the treatment of pulmonary fibrosis, liver fibrosis, skin fibrosis and cardiac fibrosis” (PROMETIC PHARMA SMT LIMITED, priority 2013, dated 2019) are described below.

Assay [1] concerns CCl4-induced liver fibrosis mouse model. Description: CCl4-induced liver fibrosis mouse model. It is filed as in vivo, mouse (male C57BL/6). The conditions noted are these: CCl4 twice a week for 8 weeks; oral 100 and 200 mg/kg every day, day 1 to day 58; FIG. 22. An excerpt: Hepatic fibrosis is an outcome of many chronic liver diseases, including hepatitis B virus, hepatitis C virus, alcoholic liver disease, non-alcoholic steatohepatitis and diverse chronic intoxication. It was thus desired to evaluate the effect of Compound I on murine CCl4-induced liver fibrosis. Intoxication with CCl4 results in hepatocyte damage, necrosis, inflammation, and fibrosis, which spreads to link the vascular structures that feed into and drain the hepatic sinusoid (the portal tract and central vein radical, respectively), and over 8-30 weeks results in the development of fibrosis to hepatocellular carcinoma. Therefore, evaluation of candidate antifibrotic drugs such as Compound I can be undertaken by treatment of the mice at appropriate time points and histologic, biochemical and cellular readouts may be used to monitor candidate drug efficacy in this model.
CCl4 (10% in corn oil, 2 ml/kg) was intraperitoneally injected twice a week for 16 weeks in male C57BL/6. Compound I (200 mg/kg) was orally administered every day from day 1 to day 113. Mice were euthanasized and histology and liver fibrotic markers were analyzed.
To determine if Compound I has an effect on liver fibrosis, hydroxyproline level was used to measure the collagen content in the tissue, which is indicative of liver fibrosis.
The reduction of collagen level in liver tissue was also observed in histological micrographs using the Masson's Trichrome staining.
The Masson's trichrome stain the cytoplasm, keratin, muscle fibers and intracellular fibers in red colour; nuclei in black colour and collagen (fibrous tissue) in blue color.
Another experiment has been performed with Compound 1 and Compound V where CCL4 (10% in olive oil, 2 ml/kg) was intraperitoneally injected twice a week for 8 weeks in male C57BL/6. Compound 1 and compound V were orally administered (100 and 200 mg/kg) every day from day 1 to day 58. Mice were euthanasized and collagen content (marker of fibrosis) in the liver was quantified by histomorphometry using Masson's trichrome staining.

The test system of assay [2] is collagen 1 mRNA in HK-2 cells (epithelial cells). Description: Inhibition of collagen mRNA in TGF-β-treated HK-2 epithelial cells. It is filed as cell-based. The note with it: Homo sapiens, HK-2, compound 0.5 mM. The procedure: (§1) CTGF, collagen 1 and α-SMA are fibrotic markers produced by activated fibroblasts and by epithelial cells that undergo to epithelial-mesenchymal transition (EMT).
(§2) Table 2: Percentage of inhibition of collagen in epithelial cells (HK2 cells) and fibroblasts (NHDF) and percentage of inhibition of α-SMA in fibroblasts (NRK-49F and NHDF) has been determined for several compounds according the invention. In all cases, the mRNA of collagen and α-SMA has been measured, and the inhibition was evaluated in presence of a respective concentration of the tested compound. The compounds have been tested at different concentrations [mM]. All compounds reduce the expression of collagen and α-SMA in HK-2, NHDF and NRK-49F cells.

In assay [3] the test system is collagen 1 mRNA in NHDF cells. Description: Inhibition of collagen mRNA in TGF-β-activated NHDF fibroblasts. The note with it: Homo sapiens, compound 0.5 mM. In kind it is cell-based. As for the experimental part: as §1, §2
For assay [4], the system named is α-SMA mRNA in NRK-49F cells. The assay is described as follows: Inhibition of α-SMA mRNA in TGF-β-activated NRK-49F fibroblasts. In kind it is cell-based, rat. The conditions noted are these: Rattus norvegicus, NRK-49F, compound 0.5 mM. The procedure:
as §1, §2

The test system of a further assay is α-SMA mRNA in NHDF cells. Description: Inhibition of α-SMA mRNA in TGF-β-activated NHDF fibroblasts. The note with it: Homo sapiens, compound 0.5 mM. In kind it is cell-based. As for the experimental part: as §1, §2

Molecules are shown by their SMILES. Counter-ions that a name gives are not always drawn.

`CCCCCc1ccc(O)c(CC(=O)O)c1` [Compound V, Sodium Salt of (2-hydroxy-5-pentylphenyl)acetic acid]: the “collagen content in liver (histomorphometry, Masson's trichrome)” value in assay [1] was “significant reduction”. Besides, the inhibition at 500 µM (in assay [2]; in assay [3]; in assay [4]; in the assay on α-SMA mRNA in NHDF cells) was 100% each time.
